Data on two compounds can be found in patent US20240287107A1, “PRODRUGS OF DIMETHYLTRYPTAMINE AND DERIVATIVES THEREOF” (priority 2022, published 2024).

The nature of the series: Stability in mouse plasma. The class given is in vitro ADME. The method, then:
Chemical and plasma stability of prodrug Compound 1 was evaluated and the results enumerated in Table 7 and Table 8, respectively. PK studies of prodrug Compound 1 and metabolite (VLS-02-23-10) in mice were also conducted and both plasma exposure and brain exposure were analyzed as shown in FIGS. 1A-1C and FIGS. 2A-2B, respectively.

`CC(C)[N+](C)(CCOC(=O)C1c2ccccc2Oc2ccccc21)C(C)C` [Propantheline] returned a T½ of 0.5682 h. In turn, `C[N+](C)(CCc1c[nH]c2ccccc12)COP(=O)([O-])O` [Compound 1, ((2-(1H-indol-3-yl)ethyl)dimethyl-λ^4-azaneyl)methyl hydrogen phosphate] came in with a T½ of 9.4723 h.
